Results on twelve molecules are retold here after ChEMBL document CHEMBL1909046, “DrugMatrix in vitro pharmacology data”.

Assay [1] has as its target T1, Polyunsaturated fatty acid lipoxygenase ALOX15 (Oryctolagus cuniculus, UniProt P12530).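 Further: inhibition of 15-lipoxygenase enzyme activity measured with linoleic acid as the substrate; in other assays of this panel Not Active means under 50% inhibition at 10 µM.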
T1 sequence (P12530 whole entry): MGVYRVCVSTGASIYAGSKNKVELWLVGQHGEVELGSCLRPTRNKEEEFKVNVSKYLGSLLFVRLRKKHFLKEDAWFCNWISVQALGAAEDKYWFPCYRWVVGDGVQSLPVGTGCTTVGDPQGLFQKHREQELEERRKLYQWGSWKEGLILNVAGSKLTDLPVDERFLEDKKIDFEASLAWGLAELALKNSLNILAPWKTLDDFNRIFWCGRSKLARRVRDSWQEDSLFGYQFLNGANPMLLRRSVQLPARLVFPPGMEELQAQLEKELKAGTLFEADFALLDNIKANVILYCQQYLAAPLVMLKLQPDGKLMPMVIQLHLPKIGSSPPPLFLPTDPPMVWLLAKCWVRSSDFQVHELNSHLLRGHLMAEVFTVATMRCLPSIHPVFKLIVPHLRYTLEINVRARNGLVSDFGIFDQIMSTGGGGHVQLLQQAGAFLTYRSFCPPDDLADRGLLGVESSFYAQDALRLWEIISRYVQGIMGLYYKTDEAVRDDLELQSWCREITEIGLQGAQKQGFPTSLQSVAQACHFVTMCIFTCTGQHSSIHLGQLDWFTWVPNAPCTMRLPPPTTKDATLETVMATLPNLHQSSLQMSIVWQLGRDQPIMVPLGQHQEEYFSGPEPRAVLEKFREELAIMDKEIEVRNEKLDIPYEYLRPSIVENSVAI
Put plainly: biochemical. It counts as tissue-based, Reticulocytes.

The target in assay [2] is Mitogen-activated protein kinase 14 (Homo sapiens, UniProt Q16539). More on the design: species or system Escherichia coli.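 Further: inhibition of p38alpha enzyme activity in a biochemical kinase assay, with myelin basic protein serving as substrate; in other assays of this panel Not Active means under 50% inhibition at 10 µM.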
Assay [3] deals with D(3) dopamine receptor (Homo sapiens, UniProt P35462). Put plainly: DRUGMATRIX: Dopamine D3 radioligand binding (ligand: [3H] Spiperone). The class given is cell membranes, CHO, Membrane. The following applies: cho.
Assay [4] is described as follows: DRUGMATRIX: GABAA, Flunitrazepam, Central radioligand binding (ligand: [3H] Flunitrazepam). The class given is cell membranes, Rattus norvegicus, Wistar, Brain, Membrane. The following applies: Not Active = under 50% inhibition at 10 µM.
Assay [5] has as its target T2, Receptor-type tyrosine-protein phosphatase C (Homo sapiens, UniProt P08575).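 Further: inhibition of CD45 enzyme activity measured using DiFMUP as substrate; in other assays of this panel Not Active means under 50% inhibition at 10 µM.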
T2 sequence (P08575 whole entry): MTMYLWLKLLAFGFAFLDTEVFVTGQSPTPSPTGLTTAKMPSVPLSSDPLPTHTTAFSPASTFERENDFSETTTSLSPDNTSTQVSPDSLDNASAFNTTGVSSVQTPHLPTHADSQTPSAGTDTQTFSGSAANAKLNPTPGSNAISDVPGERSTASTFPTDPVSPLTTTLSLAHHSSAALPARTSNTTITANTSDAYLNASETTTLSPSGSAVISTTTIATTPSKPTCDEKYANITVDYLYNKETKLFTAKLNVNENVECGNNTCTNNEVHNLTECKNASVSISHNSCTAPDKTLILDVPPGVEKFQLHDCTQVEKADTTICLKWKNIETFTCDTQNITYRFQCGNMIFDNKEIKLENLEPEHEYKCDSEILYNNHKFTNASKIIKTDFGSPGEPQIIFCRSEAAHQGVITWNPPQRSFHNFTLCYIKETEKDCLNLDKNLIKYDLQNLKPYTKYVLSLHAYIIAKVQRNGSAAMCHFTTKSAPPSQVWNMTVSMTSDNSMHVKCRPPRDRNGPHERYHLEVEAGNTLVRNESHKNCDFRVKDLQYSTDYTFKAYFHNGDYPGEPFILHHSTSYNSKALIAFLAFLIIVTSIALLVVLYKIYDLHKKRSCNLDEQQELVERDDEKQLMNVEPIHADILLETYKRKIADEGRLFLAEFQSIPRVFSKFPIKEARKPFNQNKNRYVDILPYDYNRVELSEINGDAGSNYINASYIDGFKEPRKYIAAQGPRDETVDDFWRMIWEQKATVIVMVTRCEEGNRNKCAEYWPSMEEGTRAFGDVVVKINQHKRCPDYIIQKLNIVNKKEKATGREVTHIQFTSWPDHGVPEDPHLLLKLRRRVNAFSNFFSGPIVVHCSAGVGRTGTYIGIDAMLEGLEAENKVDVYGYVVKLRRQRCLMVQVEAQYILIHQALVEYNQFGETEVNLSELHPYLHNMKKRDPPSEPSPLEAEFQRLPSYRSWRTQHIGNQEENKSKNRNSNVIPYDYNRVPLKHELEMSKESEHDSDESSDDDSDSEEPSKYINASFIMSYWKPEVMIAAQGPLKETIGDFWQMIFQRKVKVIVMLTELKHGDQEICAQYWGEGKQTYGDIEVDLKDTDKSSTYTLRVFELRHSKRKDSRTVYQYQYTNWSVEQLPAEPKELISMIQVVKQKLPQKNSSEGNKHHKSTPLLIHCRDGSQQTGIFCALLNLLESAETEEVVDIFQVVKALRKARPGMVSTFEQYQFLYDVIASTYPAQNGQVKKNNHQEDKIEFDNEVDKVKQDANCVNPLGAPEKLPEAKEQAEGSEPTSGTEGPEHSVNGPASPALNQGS
More on the design: species or system Escherichia coli.

D(3) dopamine receptor, sequence (P35462 whole entry): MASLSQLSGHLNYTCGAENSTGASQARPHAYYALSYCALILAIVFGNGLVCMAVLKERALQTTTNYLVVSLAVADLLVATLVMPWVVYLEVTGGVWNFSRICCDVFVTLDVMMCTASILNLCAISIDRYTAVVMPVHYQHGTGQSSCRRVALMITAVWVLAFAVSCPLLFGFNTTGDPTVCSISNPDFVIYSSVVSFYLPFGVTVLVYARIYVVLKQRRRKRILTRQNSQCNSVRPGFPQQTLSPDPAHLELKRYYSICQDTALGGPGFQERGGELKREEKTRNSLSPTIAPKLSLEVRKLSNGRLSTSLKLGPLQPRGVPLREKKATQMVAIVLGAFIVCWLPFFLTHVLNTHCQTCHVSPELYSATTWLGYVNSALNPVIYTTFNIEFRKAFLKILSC
Mitogen-activated protein kinase 14, sequence (Q16539 whole entry): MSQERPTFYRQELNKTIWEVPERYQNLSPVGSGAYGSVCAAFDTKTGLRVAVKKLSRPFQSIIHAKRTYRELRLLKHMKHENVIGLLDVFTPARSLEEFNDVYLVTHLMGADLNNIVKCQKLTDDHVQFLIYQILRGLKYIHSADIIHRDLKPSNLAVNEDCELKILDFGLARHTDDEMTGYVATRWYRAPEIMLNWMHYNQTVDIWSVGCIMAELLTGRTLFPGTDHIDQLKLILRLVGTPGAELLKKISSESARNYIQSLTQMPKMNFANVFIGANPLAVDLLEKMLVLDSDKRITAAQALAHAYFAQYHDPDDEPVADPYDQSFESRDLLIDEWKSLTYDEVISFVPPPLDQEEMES

As for `C[N+](C)(C)CCOC(N)=O.[Cl-]` [CARBACHOL], the concentration for half-maximal inhibition (IC50) result in assay [1] (reticulocytes), in assay [2], in assay [3], in assay [4] and in assay [5] was “Not Active” in each case. In addition, the Ki result in assay [4] is reported as “Not Active”.
`C[C@]12CC[C@@H](O)C[C@@H]1CC[C@@H]1[C@@H]2CC[C@]2(C)C(=O)CC[C@@H]12` [ANDROSTERONE]: the IC50 entry in assay [1] (reticulocytes), in assay [2], in assay [3], in assay [4] and in assay [5] was “Not Active” throughout. For the same molecule, the Ki result in assay [4] was “Not Active”.
For `NC(=O)CN1CCCC1=O`, the half-inhibitory concentration (IC50) entry in assay [1] (reticulocytes), in assay [2], in assay [3], in assay [4] and in assay [5] was “Not Active” throughout. Moreover, the inhibitory constant (Ki) result in assay [4] was “Not Active”.
For the molecule `O=C(NCCN1CCOCC1)c1ccc(Cl)cc1` [MOCLOBEMIDE], the IC50 entry in assay [1] (reticulocytes), in assay [2], in assay [3], in assay [4] and in assay [5] was “Not Active” each time. For the same molecule, the inhibitory constant (Ki) entry in assay [4] was “Not Active”.
As to `Nc1ccc(Cc2ccc(N)cc2)cc1`, the 50% inhibitory concentration (IC50) result in assay [1] (reticulocytes), in assay [2], in assay [3], in assay [4] and in assay [5] was “Not Active” in each case. In addition, the inhibition constant (Ki) result in assay [4] is given as “Not Active”.
Turning to `COc1cc([C@@H]2c3cc4c(cc3[C@H](O)[C@H]3COC(=O)[C@H]23)OCO4)cc(OC)c1OC` [PODOFILOX], the IC50 result in assay [1] (reticulocytes), in assay [2], in assay [3], in assay [4] and in assay [5] was “Not Active” each time. Also, the inhibition constant (Ki) entry in assay [4] is “Not Active”.
On to `Nc1ccc(C(=O)O)c(O)c1` [AMINOSALICYLIC ACID], for which the IC50 entry in assay [1] (reticulocytes), in assay [2], in assay [3], in assay [4] and in assay [5] was “Not Active” throughout. In assay [4], the Ki result is “Not Active”.
Consider `CCCCCCNC(=O)n1cc(F)c(=O)[nH]c1=O` [CARMOFUR], for which the 50% inhibitory concentration (IC50) result in assay [1] (reticulocytes), in assay [2], in assay [3], in assay [4] and in assay [5] was “Not Active” each time. Moreover, the Ki result in assay [4] is “Not Active”.
As for `C#C[C@]1(O)CC[C@H]2[C@@H]3CCC4=CC(=O)CC[C@@H]4[C@H]3CC[C@@]21C` [NORETHINDRONE], the IC50 result in assay [1] (reticulocytes) was “Not Active”; in assay [2], “Not Active”; in assay [3], “Not Active”; in assay [4] (read-out: IC50), 13.3 µM; in assay [5] it was “Not Active”. For the same molecule, in assay [4] (read-out: Ki), the Ki was 10.9 µM.
Regarding `C[C@H]1C[C@H]2[C@@H]3CCC4=CC(=O)C=C[C@]4(C)[C@@]3(F)[C@@H](O)C[C@]2(C)[C@@]1(O)C(=O)CO` [BETAMETHASONE], the IC50 entry in assay [1] (reticulocytes), in assay [2], in assay [3], in assay [4] and in assay [5] was “Not Active” throughout. In addition, the inhibition constant Ki entry in assay [4] was “Not Active”.
`CC(C)(c1ccc(O)cc1)c1ccc(O)cc1` [BISPHENOL A]: the IC50 in assay [1] (read-out: IC50) is 1.3 µM; in assay [2] it was “Not Active”; in assay [3], “Not Active”; in assay [4], “Not Active”; in assay [5], “Not Active”. Moreover, in assay [4], the Ki result is “Not Active”.
With `CC[C@H]1OC(=O)[C@H](C)[C@@H](O[C@H]2C[C@@](C)(OC)[C@@H](O)[C@H](C)O2)[C@H](C)[C@@H](O[C@@H]2O[C@H](C)C[C@H](N(C)C)[C@H]2O)[C@](C)(O)C[C@@H](C)C(=O)[C@H](C)[C@@H](O)[C@]1(C)O` [ERYTHROMYCIN], the half-maximal inhibitory concentration (IC50) result in assay [1] (reticulocytes), in assay [2], in assay [3], in assay [4] and in assay [5] was “Not Active” in each case. Further, in assay [4], the Ki result was “Not Active”.
